≈ marks a conversion by molar mass, not a printed value. Like-named read-outs stand apart in the source and are kept apart here. Where a SMILES comes first, the peptide text is derived from it. Where no end group is shown, it is not given here. The star is where a group is joined. Oleoyl = CCCCCCCC/C=C\CCCCCCCC(=O)*; Stearoyl = CCCCCCCCCCCCCCCCCC(=O)*; Palmitoyl = CCCCCCCCCCCCCCCC(=O)*; Tridecanoyl = CCCCCCCCCCCCC(=O)*; Myristoyl = CCCCCCCCCCCCCC(=O)*; Undecanoyl = CCCCCCCCCCC(=O)*; Lauroyl = CCCCCCCCCCCC(=O)*; Nonanoyl = CCCCCCCCC(=O)*; Heptanoyl = CCCCCCC(=O)*; Cap = not defined here

Common to all, as to format: cell-based
One assay has as its system P. acnes. In words: Activity against extended panel of P. acnes. Further details: unit not given here. The text has this:
A very promising application for short bioactive peptides is for dermatological indications such as acne.

The test system of assay [1] is Salmonella typhimurium 14028S. In words: MIC, broth microdilution, S. typhimurium. Further details: unit not given here. Conditions: for MIC, lipid length SAR: S.typhimurium; for Anti-microbial activity (MIC): S. typhimurium 14028S. On the procedure: (§1) MICs (minimal inhibitory concentrations) were determined for the hexapeptides of interest using a slightly modified version of the NCCLS (National Committee for Clinical Laboratory Standards) broth microdilution method as described previously (Steinberg et al., AAC 41: 1738, 1997). Briefly, antimicrobial agents were prepared as 10× concentrates in the most appropriate solvent. For the hexapeptide, 0.01% acetic acid containing 0.2% bovine serum albumin as a carrier protein was used. Inocula were prepared by resuspending colonies from a BAP (please spell out this term) in medium and adjusting the suspension to match that of a 0.5 McFarland standard. The suspension was diluted into fresh medium (as recommended by NCCLS for the organism) to give 2×10^5 to 7×10^5 CFU/ml for bacteria or 2×10^3 to 7×10^3 CFU/ml for Candida. After dispensing 100 μl aliquots of the microbial suspension into each well of a 96-well polypropylene microtiter plate, 11 μl of test compound was added. The MIC was defined as the lowest concentration of drug which prevented visible turbidity after 16 to 20 hours (bacteria) or 46 to 50 hours (Candida) at 35° C.
A general note: Dilution methods test growth across graded concentrations, often in twofold steps.

The next assay concerns Pseudomonas aeruginosa. Further details: MIC, lipid length SAR: unit not given here. Conditions: for MIC, lipid length SAR: P.aeruginosa. The procedure: as §1
Another assay relates to Candida albicans. The procedure: as §1
Assay [2] deals with azole resistant strains of C. albicans. Further details: MIC-SEQ ID NO: 55 + azole, peptide part / MIC-SEQ ID NO: 55 + azole, azole part: unit not given beside the values. Conditions: in combination with SEQ ID NO: 55. On the procedure:
The fractional inhibitory concentration (FIC) index was used to determine the synergy between antimicrobial agents. Peptide MICs against test microorganisms were determined three times on separate occasions. […]
All strains are azole resistant clinical isolates from Prof. Ted White (Seattle Biotechnology Research Institute, Seattle)

Another assay deals with Escherichia coli UB1005. Briefly: MIC, broth microdilution, E. coli. Further details: unit not given here. On the procedure:
as §1

As to “Lau-KFKWPW-NH2 (Lauroyl-KFKWPW-NH2; SMILES CCCCCCCCCCCC(=O)N[C@@H](CCCCN)C(=O)N[C@@H](Cc1ccccc1)C(=O)N[C@@H](CCCCN)C(=O)N[C@@H](Cc1c[nH]c2ccccc12)C(=O)N1CCC[C@H]1C(=O)N[C@@H](Cc1c[nH]c2ccccc12)C(N)=O) [SEQ ID NO: 72]”, the “Activity (MIC) against P. acnes” value is given as 1 with P. acnes (ATCC 6922); 1 in the assay on P. acnes (ATCC 6923); 1 with P. acnes (ATCC 25746); 2 in the assay on P. acnes (ATCC 29399); 1 in the assay on P. acnes (ATCC 33179); 1 in the assay on P. acnes (ATCC 51277). Besides, the “MIC, lipid length SAR” value (in assay [1]; against Pseudomonas aeruginosa) was 32 throughout.
As for “Myr-KFKWPW-NH2 (Myristoyl-KFKWPW-NH2; SMILES CCCCCCCCCCCCCC(=O)N[C@@H](CCCCN)C(=O)N[C@@H](Cc1ccccc1)C(=O)N[C@@H](CCCCN)C(=O)N[C@@H](Cc1c[nH]c2ccccc12)C(=O)N1CCC[C@H]1C(=O)N[C@@H](Cc1c[nH]c2ccccc12)C(N)=O) [SEQ ID NO: 77]”, the “MIC, lipid length SAR” value in assay [1] was over 128; in the assay with Pseudomonas aeruginosa it was 64-128.
With “Non-KFKWPW-NH2 (Nonanoyl-KFKWPW-NH2; SMILES CCCCCCCCC(=O)N[C@@H](CCCCN)C(=O)N[C@@H](Cc1ccccc1)C(=O)N[C@@H](CCCCN)C(=O)N[C@@H](Cc1c[nH]c2ccccc12)C(=O)N1CCC[C@H]1C(=O)N[C@@H](Cc1c[nH]c2ccccc12)C(N)=O) [SEQ ID NO: 70]”, the entries for the “MIC, lipid length SAR” value (in assay [1]; in the assay with Pseudomonas aeruginosa) were 16 and 32-64, respectively.
`CCCCCCCCCCC(=O)N[C@@H](CCCCN)C(=O)N[C@@H](Cc1ccccc1)C(=O)N[C@@H](CCCCN)C(=O)N[C@@H](Cc1c[nH]c2ccccc12)C(=O)N1CCC[C@H]1C(=O)N[C@@H](Cc1c[nH]c2ccccc12)C(N)=O` [compound 79] (Undecanoyl-KFKWPW-NH2): the figures for the “Minimal Inhibitory Concentrations (Mics)” value with Candida albicans and in the assay with Pseudomonas aeruginosa were 4-8 Mg/Ml and 8-16 Mg/Ml, respectively.
As to “Hep-KFKWPW-NH2 (Heptanoyl-KFKWPW-NH2; SMILES CCCCCCC(=O)N[C@@H](CCCCN)C(=O)N[C@@H](Cc1ccccc1)C(=O)N[C@@H](CCCCN)C(=O)N[C@@H](Cc1c[nH]c2ccccc12)C(=O)N1CCC[C@H]1C(=O)N[C@@H](Cc1c[nH]c2ccccc12)C(N)=O) [SEQ ID NO: 69]”, the “MIC, lipid length SAR” value (in assay [1]; in the assay with Pseudomonas aeruginosa) was 128 in each case.
In the case of `Clc1ccccc1C(c1ccccc1)(c1ccccc1)n1ccnc1` [Clotrimazole, clotrimazole, reference compound], the “MIC-SEQ ID NO: 55 + azole, azole part” value in assay [2] (C. albicans #185) is recorded as 12.5; in assay [2] (C. albicans #186), 12.5; in assay [2] (C. albicans #187), 25; in assay [2] (C. albicans #192) it was 50; in assay [2] (C. albicans #196), 50; in assay [2] (C. albicans #199) it was 25. Further, the MIC against Candida albicans (T.W. Candida #184, azole resistant clinical isolate) was over 256 µg/mL; in the assay with Candida albicans (T.W. Candida #185 (CDR1,2), azole resistant clinical isolate) it was 128 µg/mL (≈ 371 µM); with Candida albicans (T.W. Candida #186 (CDR1,2), azole resistant clinical isolate), 32 µg/mL (≈ 92.8 µM); against Candida albicans (T.W. Candida #187 (CDR1,2), azole resistant clinical isolate) it was over 256 µg/mL; in the assay on Candida albicans (T.W. Candida #192 (CDR1,2), azole resistant clinical isolate), 128 µg/mL (≈ 371 µM); against Candida albicans (T.W. Candida #193, azole resistant clinical isolate) it was 0.5 µg/mL (≈ 1.45 µM). In addition, the minimal inhibitory concentration (MIC) with Candida albicans (T.W. Candida #194, azole resistant clinical isolate) was over 256 µg/mL; against Candida albicans (T.W. Candida #195, azole resistant clinical isolate) it was 256 µg/mL (≈ 742 µM); in the assay with Candida albicans (T.W. Candida #196 (CDR1,2), azole resistant clinical isolate), 64 µg/mL (≈ 186 µM); against Candida albicans (T.W. Candida #197, azole resistant clinical isolate), over 256 µg/mL; in the assay with Candida albicans (T.W. Candida #198, azole resistant clinical isolate) it was over 256 µg/mL; in the assay on Candida albicans (T.W. Candida #199 (CDR1,2), azole resistant clinical isolate) it was 64 µg/mL (≈ 186 µM).
Consider “Tri-KFKWPW-NH2 (Tridecanoyl-KFKWPW-NH2; SMILES CCCCCCCCCCCCC(=O)N[C@@H](CCCCN)C(=O)N[C@@H](Cc1ccccc1)C(=O)N[C@@H](CCCCN)C(=O)N[C@@H](Cc1c[nH]c2ccccc12)C(=O)N1CCC[C@H]1C(=O)N[C@@H](Cc1c[nH]c2ccccc12)C(N)=O) [SEQ ID NO: 80]”, for which the “MIC, lipid length SAR” value in assay [1] is given as 32-64; in the assay on Pseudomonas aeruginosa, 32.
Consider VKVKPV-NH2 [SEQ ID NO: 13], for which the “Anti-microbial activity (MIC)” value (in assay [1]; with Escherichia coli UB1005) was over 128 each time.
As to KFVWPW-NH2 [SEQ ID NO: 32], the “Anti-microbial activity (MIC)” value (in assay [1]; in the assay with Escherichia coli UB1005) was over 128 in each case.
Regarding “Ste-KFKWPW-NH2 (Stearoyl-KFKWPW-NH2; SMILES CCCCCCCCCCCCCCCCCC(=O)N[C@@H](CCCCN)C(=O)N[C@@H](Cc1ccccc1)C(=O)N[C@@H](CCCCN)C(=O)N[C@@H](Cc1c[nH]c2ccccc12)C(=O)N1CCC[C@H]1C(=O)N[C@@H](Cc1c[nH]c2ccccc12)C(N)=O) [SEQ ID NO: 74]”, the “MIC, lipid length SAR” value (in assay [1]; in the assay on Pseudomonas aeruginosa) was over 128 throughout.
With FAKLAK-NH2 [SEQ ID NO: 20], the “Anti-microbial activity (MIC)” value (in assay [1]; in the assay with Escherichia coli UB1005) was over 128 in each case.
FALKKL-NH2 [SEQ ID NO: 14]: the “Anti-microbial activity (MIC)” value (in assay [1]; in the assay with Escherichia coli UB1005) was over 128 throughout.
With “Pal-KFKWPW-NH2 (Palmitoyl-KFKWPW-NH2; SMILES CCCCCCCCCCCCCCCC(=O)N[C@@H](CCCCN)C(=O)N[C@@H](Cc1ccccc1)C(=O)N[C@@H](CCCCN)C(=O)N[C@@H](Cc1c[nH]c2ccccc12)C(=O)N1CCC[C@H]1C(=O)N[C@@H](Cc1c[nH]c2ccccc12)C(N)=O) [SEQ ID NO: 73]”, the “MIC, lipid length SAR” value (in assay [1]; with Pseudomonas aeruginosa) was over 128 each time.
On to “OIe-KFKWPW-NH2 (Oleoyl-KFKWPW-NH2; SMILES CCCCCCCC/C=C\CCCCCCCC(=O)N[C@@H](CCCCN)C(=O)N[C@@H](Cc1ccccc1)C(=O)N[C@@H](CCCCN)C(=O)N[C@@H](Cc1c[nH]c2ccccc12)C(=O)N1CCC[C@H]1C(=O)N[C@@H](Cc1c[nH]c2ccccc12)C(N)=O) [SEQ ID NO: 75]”, for which the “MIC, lipid length SAR” value (in assay [1]; with Pseudomonas aeruginosa) was over 128 each time.
On to FKFKPV-NH2 [SEQ ID NO: 12], for which the “Anti-microbial activity (MIC)” value (in assay [1]; in the assay with Escherichia coli UB1005) was over 128 in each case.
Turning to “Cap-KFKWPW-NH2 (not fully specified; printed as Cap-KFKWPW-NH2; reading uncertain) [SEQ ID NO: 71]”, the “MIC, lipid length SAR” value in assay [1] is listed as 128; against Pseudomonas aeruginosa, over 128.
Take KPVWPW-NH2 [SEQ ID NO: 30]: the “Anti-microbial activity (MIC)” value (in assay [1]; in the assay on Escherichia coli UB1005) was over 128 throughout.
With KFFWPF-NH2 [SEQ ID NO: 36], the “Anti-microbial activity (MIC)” value (in assay [1]; in the assay on Escherichia coli UB1005) was over 128 each time.
With `CCCCCCCCC(=O)N[C@@H](CCCCN)C(=O)N[C@@H](Cc1ccccc1)C(=O)N[C@@H](CCCCN)C(=O)N[C@@H](Cc1c[nH]c2ccccc12)C(=O)N1CCC[C@H]1C(=O)N[C@@H](Cc1c[nH]c2ccccc12)C(N)=O` [compound 70] (Nonanoyl-KFKWPW-NH2), the “Minimal Inhibitory Concentrations (Mics)” value in the assay with Pseudomonas aeruginosa is reported as 32-64 Mg/Ml.
In the case of FPWKFK-NH2 [SEQ ID NO: 34], the “Anti-microbial activity (MIC)” value (in assay [1]; in the assay on Escherichia coli UB1005) was over 128 each time.
In the case of LAKLAK-NH2 [SEQ ID NO: 28], the “Anti-microbial activity (MIC)” value (in assay [1]; in the assay on Escherichia coli UB1005) was over 128 throughout.
Regarding FRHFRW-NH2 [SEQ ID NO: 18], the “Anti-microbial activity (MIC)” value (in assay [1]; in the assay on Escherichia coli UB1005) was over 128 throughout.
Turning to KWKVFK-NH2 [SEQ ID NO: 24], the “Anti-microbial activity (MIC)” value (in assay [1]; in the assay with Escherichia coli UB1005) was over 128 in each case.
Take VAKKWK-NH2 [SEQ ID NO: 25]: the “Anti-microbial activity (MIC)” value (in assay [1]; with Escherichia coli UB1005) was over 128 in each case.
RKTWPW-NH2 [SEQ ID NO: 15]: the “Anti-microbial activity (MIC)” value (in assay [1]; in the assay on Escherichia coli UB1005) was over 128 in each case.

What is called MIC is the lowest concentration found to suppress growth.
